According to ChEMBL document CHEMBL1152324, “Protolimonoids from Melia toosendan” (J Nat Prod, 2009):

Legend:
Format in all cases: functional, cell-based
MCF7 = assay: Cytotoxicity against human MCF7 cells by SRB assay
HT-29 = assay: Cytotoxicity against human HT-29 cells by SRB assay
HL-60 = assay: Cytotoxicity against human HL60 cells by SRB assay

Compound	IC50 (MCF7) [µM]	IC50 (HT-29) [µM]	IC50 (HL-60) [µM]
CC(C)=CCCC(C(=O)O)[C@@H]1[C@@H](O)C[C@]2(C)C3=CC[C@H]4C(C)(C)[C@@H](O)CC[C@]4(C)[C@H]3CC[C@@]12C (some centres not stated) [TOOSENDANIC ACID A]	< 10	< 10	< 10
CC(C)=CCCC(C(=O)O)[C@@H]1[C@@H](O)C[C@]2(C)C3=CC[C@H]4C(C)(C)[C@H](O)CC[C@]4(C)[C@H]3CC[C@@]12C (some centres not stated) [TOOSENDANIC ACID B]	< 10	< 10	< 10
COc1cccc2c1C(=O)c1c(O)c3c(c(O)c1C2=O)C[C@@](O)(C(=O)CO)C[C@@H]3O[C@H]1C[C@H](N)[C@H](O)[C@H](C)O1 [DOXORUBICIN]	0.12	0.33	0.016
CC(C)(O)[C@@H]1CC[C@H]([C@@H]2[C@@H](O)C[C@]3(C)C4=CC[C@H]5C(C)(C)C(=O)CC[C@]5(C)[C@H]4CC[C@@]23C)[C@H]1O [TOOSENDANONE A]	< 10	< 10	< 10
